PubChem BioAssay AID256 (DTP/NCI, 2004)
Toxic doses and inconclusive results are not listed. The calls were made as follows: active = survival T/C of 150% or more; inactive = T/C below 125% in these data.

Test system: CD2F1 mice, L1210 leukemia ip, survival T/C
Test: NCI In Vivo Anticancer Drug Screen. Data for tumor model L1210 Leukemia (intraperitoneal) in CD2F1 (CDF1) mice
Settings: higher = longer survival
In short: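 Activity against a transplanted murine tumor was judged by comparing the compound group with a vehicle group. The outcome in the treated animals was divided by that in the controls.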

[1] = endpoint: mean survival time, dose: 12.5 mg/kg/injection, schedule: Q01DX009 (ip), vehicle: saline with Tween-80
[2] = endpoint: mean survival time, dose: 25.0 mg/kg/injection, schedule: Q01DX009 (ip), vehicle: saline with Tween-80
[3] = endpoint: mean survival time, dose: 50.0 mg/kg/injection, schedule: Q01DX001 (ip), vehicle: saline with Tween-80
[4] = endpoint: mean survival time, dose: 50.0 mg/kg/injection, schedule: Q01DX009 (ip), vehicle: saline with Tween-80
[5] = endpoint: mean survival time, dose: 100.0 mg/kg/injection, schedule: Q01DX001 (ip), vehicle: saline with Tween-80
[6] = endpoint: mean survival time, dose: 100.0 mg/kg/injection, schedule: Q01DX009 (ip), vehicle: saline
[7] = endpoint: mean survival time, dose: 200.0 mg/kg/injection, schedule: Q01DX009 (ip), vehicle: saline
[8] = endpoint: mean survival time, dose: 100.0 mg/kg/injection, schedule: Q01DX001 (ip), vehicle: saline
[9] = endpoint: mean survival time, dose: 200.0 mg/kg/injection, schedule: Q01DX001 (ip), vehicle: saline
[10] = endpoint: mean survival time, dose: 200.0 mg/kg/injection, schedule: Q01DX001 (ip), vehicle: saline with Tween-80
[11] = endpoint: mean survival time, dose: 400.0 mg/kg/injection, schedule: Q01DX001 (ip), vehicle: saline with Tween-80
[12] = endpoint: mean survival time, dose: 100.0 mg/kg/injection, schedule: Q01DX009 (ip), vehicle: saline with Tween-80
[13] = endpoint: mean survival time, dose: 200.0 mg/kg/injection, schedule: Q01DX009 (ip), vehicle: saline with Tween-80
[14] = endpoint: mean survival time, dose: 400.0 mg/kg/injection, schedule: Q01DX009 (ip), vehicle: saline with Tween-80
[15] = endpoint: mean survival time, dose: 100.0 mg/kg/injection, schedule: Q01DX001 (ip), vehicle: Klucel (hydroxypropylcellulose) (HPC)
[16] = endpoint: mean survival time, dose: 200.0 mg/kg/injection, schedule: Q01DX001 (ip), vehicle: Klucel (hydroxypropylcellulose) (HPC)
[17] = endpoint: mean survival time, dose: 100.0 mg/kg/injection, schedule: Q04DX003 (ip), vehicle: saline with Tween-80

Measured: T/C

CCOC(=O)c1c(O)c2c([nH]c1=O)CCc1ccccc1-2
inactive: [1] 98 % of control | endpoint: mean survival time, dose: 25.0 mg/kg/injection, schedule: Q01DX001 (ip), vehicle: saline with Tween-80 98 % of control | [2] 95 % of control | [3] 93 % of control | [4] 95 % of control | [5] 103 % of control

BrCC[CH2][Sn]([Br])([Br])[Br]
inactive: endpoint: mean survival time, dose: 50.0 mg/kg/injection, schedule: Q01DX009 (ip), vehicle: saline 103 % of control | [6] 91 % of control | [7] 95 % of control

CC(CN1c2ccccc2Sc2ccccc21)N(C)CCO (stereo unspecified)
inactive: endpoint: mean survival time, dose: 50.0 mg/kg/injection, schedule: Q01DX001 (ip), vehicle: saline 101 % of control | [8] 101 % of control | [9] 97 % of control | endpoint: mean survival time, dose: 400.0 mg/kg/injection, schedule: Q01DX001 (ip), vehicle: saline 97 % of control

CCCC(=O)c1cc(O)c(O)cc1O
inactive: [1] 111 % of control | [2] 93 % of control | [4] 97 % of control

CCN(CC)CCCOC(=O)c1ccc(N)cc1
inactive: endpoint: mean survival time, dose: 12.5 mg/kg/injection, schedule: Q04DX003 (ip), vehicle: saline 107 % of control | endpoint: mean survival time, dose: 25.0 mg/kg/injection, schedule: Q04DX003 (ip), vehicle: saline 105 % of control | endpoint: mean survival time, dose: 50.0 mg/kg/injection, schedule: Q04DX003 (ip), vehicle: saline 101 % of control

Oc1ccccc1Br
inactive: [8] 96 % of control | [9] 93 % of control

CC(=O)NCC(O)C(O)C(O)C(O)COC(=O)c1ccccc1 (stereo unspecified)
inactive: [5] 95 % of control | [10] 95 % of control | [11] 96 % of control

COc1ccc(/C=N/NC(=O)CNC(=O)Nc2cccc([N+](=O)[O-])c2)cc1
inactive: [4] 89 % of control | [12] 93 % of control | [13] 93 % of control

O=c1nc(N2CCSCC2)ccn1C1OC(CO)C(O)C1O (stereo unspecified)
inactive: endpoint: median survival time, dose: 12.5 mg/kg/injection, schedule: Q01DX005 (ip), vehicle: water 100 % of control | endpoint: median survival time, dose: 25.0 mg/kg/injection, schedule: Q01DX005 (ip), vehicle: water 101 % of control | endpoint: median survival time, dose: 50.0 mg/kg/injection, schedule: Q01DX005 (ip), vehicle: water 102 % of control | endpoint: median survival time, dose: 100.0 mg/kg/injection, schedule: Q01DX005 (ip), vehicle: water 101 % of control | endpoint: median survival time, dose: 200.0 mg/kg/injection, schedule: Q01DX005 (ip), vehicle: water 103 % of control

Cc1ccc(S(=O)(=O)N/N=C2\CC3CCC2(C)C3(C)C)cc1 (stereo unspecified)
inactive: [4] 96 % of control | [12] 88 % of control | [13] 100 % of control

COC1OC(COS(C)(=O)=O)C(OS(C)(=O)=O)C(OS(C)(=O)=O)C1OS(C)(=O)=O (stereo unspecified)
inactive: [12] 95 % of control | [13] 101 % of control | [14] 94 % of control

CC(C)(CO)COS(=O)(=O)c1ccc(Br)cc1
inactive: [1] 95 % of control | [2] 95 % of control | [4] 95 % of control

O=C1CC(c2ccc(Br)cc2)N(c2ccc([As](=O)(O)O)cc2)C1=O (stereo unspecified)
inactive: endpoint: mean survival time, dose: 6.25 mg/kg/injection, schedule: Q01DX009 (ip), vehicle: Klucel (hydroxypropylcellulose) (HPC) 95 % of control | endpoint: mean survival time, dose: 12.5 mg/kg/injection, schedule: Q01DX009 (ip), vehicle: Klucel (hydroxypropylcellulose) (HPC) 89 % of control | endpoint: median survival time, dose: 6.25 mg/kg/injection, schedule: Q04DX003 (ip), vehicle: saline with Tween-80 100 % of control | endpoint: median survival time, dose: 12.5 mg/kg/injection, schedule: Q04DX003 (ip), vehicle: saline with Tween-80 106 % of control | endpoint: median survival time, dose: 25.0 mg/kg/injection, schedule: Q04DX003 (ip), vehicle: saline with Tween-80 100 % of control

COC(=O)c1csc(CCN)n1
inactive: [6] 102 % of control | [7] 95 % of control | endpoint: mean survival time, dose: 400.0 mg/kg/injection, schedule: Q01DX009 (ip), vehicle: saline 92 % of control

C=CCC1CN(CCC(O)c2ccc(F)cc2)CCC1(OC(=O)CC)c1ccccc1 (stereo unspecified)
inactive: endpoint: mean survival time, dose: 100.0 mg/kg/injection, schedule: Q04DX002 (ip), vehicle: Klucel (hydroxypropylcellulose) (HPC) 93 % of control | endpoint: mean survival time, dose: 200.0 mg/kg/injection, schedule: Q04DX002 (ip), vehicle: Klucel (hydroxypropylcellulose) (HPC) 101 % of control | endpoint: mean survival time, dose: 400.0 mg/kg/injection, schedule: Q04DX002 (ip), vehicle: Klucel (hydroxypropylcellulose) (HPC) 104 % of control

Cc1ccccc1N=Nc1ccccc1
inactive: [5] 104 % of control | [10] 96 % of control | [11] 101 % of control

Cc1ccc(S(=O)(=O)N(CCCc2c(C)nc(N)nc2Cl)c2ccccc2)cc1
inactive: endpoint: mean survival time, dose: 50.0 mg/kg/injection, schedule: Q01DX001 (ip), vehicle: Klucel (hydroxypropylcellulose) (HPC) 100 % of control | [15] 104 % of control | [16] 96 % of control

O=P1(O)c2ccccc2Nc2ccccc21
inactive: endpoint: mean survival time, dose: 50.0 mg/kg/injection, schedule: Q01DX009 (ip), vehicle: Klucel (hydroxypropylcellulose) (HPC) 104 % of control | endpoint: mean survival time, dose: 100.0 mg/kg/injection, schedule: Q01DX009 (ip), vehicle: Klucel (hydroxypropylcellulose) (HPC) 93 % of control | endpoint: mean survival time, dose: 200.0 mg/kg/injection, schedule: Q01DX009 (ip), vehicle: Klucel (hydroxypropylcellulose) (HPC) 108 % of control

CC(=O)NC1C(OC(C)=O)OC(COC(c2ccccc2)(c2ccccc2)c2ccccc2)C(O)C1OC(C)=O (stereo unspecified)
inactive: endpoint: mean survival time, dose: 12.5 mg/kg/injection, schedule: Q04DX002 (ip), vehicle: saline with Tween-80 93 % of control | endpoint: mean survival time, dose: 12.5 mg/kg/injection, schedule: Q04DX003 (ip), vehicle: saline with Tween-80 103 % of control | endpoint: mean survival time, dose: 25.0 mg/kg/injection, schedule: Q04DX003 (ip), vehicle: saline with Tween-80 95 % of control | [3] 88 % of control | endpoint: mean survival time, dose: 50.0 mg/kg/injection, schedule: Q04DX002 (ip), vehicle: saline with Tween-80 91 % of control | endpoint: mean survival time, dose: 50.0 mg/kg/injection, schedule: Q04DX003 (ip), vehicle: saline with Tween-80 87 % of control | [5] 87 % of control | endpoint: mean survival time, dose: 100.0 mg/kg/injection, schedule: Q04DX002 (ip), vehicle: saline with Tween-80 88 % of control | [17] 93 % of control | [10] 88 % of control | [11] 90 % of control

Cc1nc2ccc(Cl)c(Cl)c2s1
inactive: [17] 106 % of control | endpoint: mean survival time, dose: 200.0 mg/kg/injection, schedule: Q04DX003 (ip), vehicle: saline with Tween-80 106 % of control | endpoint: mean survival time, dose: 400.0 mg/kg/injection, schedule: Q04DX003 (ip), vehicle: saline with Tween-80 104 % of control

CCCCCCCCCCCCCOc1ccc2ccccc2c1
inactive: [15] 107 % of control | [16] 96 % of control | endpoint: mean survival time, dose: 400.0 mg/kg/injection, schedule: Q01DX001 (ip), vehicle: Klucel (hydroxypropylcellulose) (HPC) 87 % of control

O=C(O)/C=C\c1cccc([N+](=O)[O-])c1
inactive: [12] 94 % of control | [13] 103 % of control | [14] 88 % of control

O=c1[nH]c(=S)nc2nc[nH]n12
inactive: endpoint: mean survival time, dose: 12.5 mg/kg/injection, schedule: Q01DX001 (ip), vehicle: carboxymethylcellulose (CMC) 97 % of control | endpoint: mean survival time, dose: 25.0 mg/kg/injection, schedule: Q01DX001 (ip), vehicle: carboxymethylcellulose (CMC) 100 % of control | endpoint: mean survival time, dose: 50.0 mg/kg/injection, schedule: Q01DX001 (ip), vehicle: carboxymethylcellulose (CMC) 104 % of control | endpoint: mean survival time, dose: 100.0 mg/kg/injection, schedule: Q01DX001 (ip), vehicle: carboxymethylcellulose (CMC) 97 % of control | endpoint: mean survival time, dose: 200.0 mg/kg/injection, schedule: Q01DX001 (ip), vehicle: carboxymethylcellulose (CMC) 97 % of control
